Test [1] concerns the target T1, cyclin G associated kinase (GAK), kinase domain (Homo sapiens, UniProt O14976).
T1 sequence (O14976 12-347 limits assumed): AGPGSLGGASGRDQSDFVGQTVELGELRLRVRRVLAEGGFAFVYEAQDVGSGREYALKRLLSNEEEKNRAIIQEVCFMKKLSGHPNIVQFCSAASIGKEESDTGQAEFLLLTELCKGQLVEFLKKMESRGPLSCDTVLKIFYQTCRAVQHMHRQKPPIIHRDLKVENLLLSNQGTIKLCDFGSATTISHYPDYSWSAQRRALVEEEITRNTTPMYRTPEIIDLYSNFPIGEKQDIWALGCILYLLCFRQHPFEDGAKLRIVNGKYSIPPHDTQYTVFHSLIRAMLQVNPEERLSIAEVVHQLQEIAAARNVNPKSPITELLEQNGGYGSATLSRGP
Kind of test: biochemical.

In test [2] the target is T2, AAK1 (Homo sapiens, UniProt Q2M2I8). The test can be described thus: biochemical.
T2 sequence (Q2M2I8 whole entry): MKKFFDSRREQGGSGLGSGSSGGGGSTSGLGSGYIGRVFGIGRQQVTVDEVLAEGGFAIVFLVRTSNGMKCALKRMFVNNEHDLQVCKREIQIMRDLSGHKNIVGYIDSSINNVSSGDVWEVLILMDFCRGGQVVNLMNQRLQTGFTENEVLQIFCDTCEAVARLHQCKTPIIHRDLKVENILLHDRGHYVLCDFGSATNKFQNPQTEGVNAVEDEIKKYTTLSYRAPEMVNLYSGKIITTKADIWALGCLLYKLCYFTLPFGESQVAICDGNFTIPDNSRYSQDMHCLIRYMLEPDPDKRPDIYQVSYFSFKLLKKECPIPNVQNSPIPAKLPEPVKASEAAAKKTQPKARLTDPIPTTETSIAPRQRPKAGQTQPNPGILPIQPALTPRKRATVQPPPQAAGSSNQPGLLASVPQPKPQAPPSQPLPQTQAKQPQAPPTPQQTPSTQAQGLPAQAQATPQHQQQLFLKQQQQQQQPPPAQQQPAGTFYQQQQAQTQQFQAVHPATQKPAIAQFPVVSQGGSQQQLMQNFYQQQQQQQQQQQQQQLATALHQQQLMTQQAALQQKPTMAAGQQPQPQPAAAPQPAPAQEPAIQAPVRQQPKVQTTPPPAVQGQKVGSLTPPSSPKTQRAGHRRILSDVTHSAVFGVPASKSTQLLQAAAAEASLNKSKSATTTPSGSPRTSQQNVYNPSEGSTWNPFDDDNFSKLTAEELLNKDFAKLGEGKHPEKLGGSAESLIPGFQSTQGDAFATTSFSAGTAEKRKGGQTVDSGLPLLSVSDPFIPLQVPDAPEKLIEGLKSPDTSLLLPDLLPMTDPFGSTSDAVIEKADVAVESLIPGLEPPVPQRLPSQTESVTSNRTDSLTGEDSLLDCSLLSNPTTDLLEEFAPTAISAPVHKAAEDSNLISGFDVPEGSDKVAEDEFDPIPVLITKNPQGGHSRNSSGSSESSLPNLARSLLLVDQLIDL
The target of test [3] is T3, BMP2K (Homo sapiens, UniProt Q9NSY1). Kind of test: biochemical.
T3 sequence (Q9NSY1 whole entry): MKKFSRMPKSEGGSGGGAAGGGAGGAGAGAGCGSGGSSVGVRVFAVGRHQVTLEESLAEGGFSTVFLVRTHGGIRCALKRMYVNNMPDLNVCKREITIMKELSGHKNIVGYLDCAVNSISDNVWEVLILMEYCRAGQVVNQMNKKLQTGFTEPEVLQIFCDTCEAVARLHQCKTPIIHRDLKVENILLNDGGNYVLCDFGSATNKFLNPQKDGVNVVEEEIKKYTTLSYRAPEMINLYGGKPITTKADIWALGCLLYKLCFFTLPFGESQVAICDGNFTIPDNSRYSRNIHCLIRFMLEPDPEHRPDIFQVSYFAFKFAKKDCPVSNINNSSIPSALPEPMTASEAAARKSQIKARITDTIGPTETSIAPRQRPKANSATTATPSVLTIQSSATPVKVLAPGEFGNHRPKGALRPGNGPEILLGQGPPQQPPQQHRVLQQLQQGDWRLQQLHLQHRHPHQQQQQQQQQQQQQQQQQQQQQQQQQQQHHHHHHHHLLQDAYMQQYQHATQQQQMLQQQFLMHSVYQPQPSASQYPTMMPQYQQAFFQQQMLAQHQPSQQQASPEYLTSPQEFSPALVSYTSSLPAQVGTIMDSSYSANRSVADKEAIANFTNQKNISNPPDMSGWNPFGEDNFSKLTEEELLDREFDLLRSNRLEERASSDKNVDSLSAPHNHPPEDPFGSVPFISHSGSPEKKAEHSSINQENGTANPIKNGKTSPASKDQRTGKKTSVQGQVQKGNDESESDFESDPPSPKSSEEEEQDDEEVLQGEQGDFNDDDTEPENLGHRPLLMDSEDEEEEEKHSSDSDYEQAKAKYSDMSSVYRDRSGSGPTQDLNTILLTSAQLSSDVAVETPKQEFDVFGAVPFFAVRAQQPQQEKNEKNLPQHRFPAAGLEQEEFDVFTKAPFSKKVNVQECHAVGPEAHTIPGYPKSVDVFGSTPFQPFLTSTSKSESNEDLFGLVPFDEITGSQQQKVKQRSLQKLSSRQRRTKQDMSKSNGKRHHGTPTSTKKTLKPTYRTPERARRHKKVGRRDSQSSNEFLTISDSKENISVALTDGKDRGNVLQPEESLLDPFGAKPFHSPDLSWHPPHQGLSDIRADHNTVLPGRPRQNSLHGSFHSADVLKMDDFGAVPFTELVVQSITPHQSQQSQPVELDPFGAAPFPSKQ
Test [4] addresses T4, STK16 (Homo sapiens, UniProt O75716). The test can be described thus: biochemical.
For test [5], the target named is T1, cyclin G associated kinase (GAK), kinase domain. The test can be described thus: TR-FRET ligand binding displacement assay, 16-point dose response. On the technique in general: Time-resolved FRET reads energy transfer from a long-lived donor to a nearby acceptor.
The target is the same in test [6]. The test can be described thus: biochemical. This is another data set of the same source.
For test [7], the target named is T2, AAK1. Kind of test: biochemical. This is another data set of the same source.
Test [8] addresses T3, BMP2K. The test can be described thus: biochemical. This is another data set of the same source.
Test [9] deals with T4, STK16. The test can be described thus: biochemical. This is another data set of the same source.

Each structure is given as a SMILES string. Read-outs that look alike come from different tables or passages of the source.

T4 sequence (O75716 whole entry, the tested form may be a part): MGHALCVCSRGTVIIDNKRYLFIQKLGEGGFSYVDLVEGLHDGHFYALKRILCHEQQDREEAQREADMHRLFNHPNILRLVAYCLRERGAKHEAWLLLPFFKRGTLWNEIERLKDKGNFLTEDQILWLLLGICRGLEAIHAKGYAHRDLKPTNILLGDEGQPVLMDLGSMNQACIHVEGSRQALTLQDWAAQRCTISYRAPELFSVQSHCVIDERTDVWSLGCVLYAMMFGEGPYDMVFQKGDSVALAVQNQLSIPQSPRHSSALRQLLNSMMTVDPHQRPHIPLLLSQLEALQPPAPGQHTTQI

Turning to `Oc1cccc(Nc2ccnc3ccc(C(F)(F)F)cc23)c1` [compound 5, 3-((6-(trifluoromethyl)quinolin-4-yl)amino)phenol], the Ki (commonly a measure of affinity in units of concentration, obtained from inhibition or displacement) stood at 0.0047 µM in test [1], 2.6 µM at AAK1 [2], 5.8 µM on BMP2K [3] and 3 µM at STK16 [4].

On to `O=[N+]([O-])c1cccc(Nc2ccnc3ccc(C(F)(F)F)cc23)c1` [compound 6, N-(3-nitrophenyl)-6-(trifluoromethyl)quinolin-4-amine], for which the Ki in [1] was 0.21 µM; on AAK1 [2], more than 100 µM; on BMP2K [3], more than 100 µM; at STK16 [4], more than 100 µM.

For the compound `CN(C)c1cccc(Nc2ccnc3ccc(C(F)(F)F)cc23)c1` [compound 8, ^1N,^1N-dimethyl-3-N-[6-(trifluoromethyl)quinolin-4-yl]benzene-1,3-diamine], the Ki in test [5] is 0.65 µM; at AAK1 [2], more than 100 µM; on BMP2K [3], more than 100 µM; on STK16 [4] it was 13 µM.

On to `CN(C)c1cccc(Nc2ccnc3ccccc23)c1` [compound 10, N1 ,N1-dimethyl-N3-(quinolin-4-yl)benzene-1,3-diamine], for which the Ki in test [1] is 0.97 µM; at AAK1 [2], 29 µM; on BMP2K [3], more than 100 µM; on STK16 [4], more than 100 µM.

With `OCc1cccc(Nc2ccnc3ccc(C(F)(F)F)cc23)c1` [compound 11, (3-{[6-(trifluoromethyl)quinolin-4-yl]amino}phenyl)methanol], the Ki in test [1] worked out at 0.06 µM; on AAK1 [2] it was 10 µM; on BMP2K [3], 15 µM; on STK16 [4] it was 20 µM.

In the case of `OCc1ccccc1Nc1ccnc2ccc(C(F)(F)F)cc12` [compound 12, (2-{[6-(trifluoromethyl)quinolin-4-yl]amino}phenyl)methanol], the Ki was 0.041 µM in [1], 8.5 µM at AAK1 [2], 16 µM on BMP2K [3] and 5 µM at STK16 [4].

With `COc1cccc(Nc2ccnc3ccc(Br)cc23)c1` [compound 13, 6-bromo-N-(3-methoxyphenyl)quinolin-4-amine], the Ki in test [6] was found to be 0.0029 µM; on AAK1 [7] it was 3 µM; at BMP2K [8], 7 µM; at STK16 [9], 32 µM.

Consider `Oc1cccc(Nc2ccnc3ccc(Br)cc23)c1` [compound 14, 3-((6-bromoquinolin-4-yl)amino)phenol], for which the Ki turned out to be 0.0012 µM in test [6], 0.5 µM on AAK1 [7], 2 µM on BMP2K [8] and 5.7 µM at STK16 [9].

As for `COc1cccc(Nc2ccnc3ccccc23)c1` [compound 15, N-(3-methoxyphenyl)quinolin-4-amine], the Ki was 0.027 µM in test [1], 25 µM on AAK1 [2], more than 100 µM on BMP2K [3] and more than 100 µM on STK16 [4].

Take `Oc1cccc(Nc2ccnc3ccccc23)c1` [compound 16, 3-(quinolin-4-ylamino)phenol]: the Ki in test [1] was 0.012 µM; on AAK1 [2], 6.6 µM; on BMP2K [3], 30 µM; at STK16 [4], more than 100 µM.

In the case of `COc1cccc(Nc2ccnc3ccc(OC)cc23)c1` [compound 17, 6-methoxy-N-(3-methoxyphenyl)quinolin-4-amine], the Ki in [1] was 0.0079 µM; on AAK1 [2], 9.1 µM; at BMP2K [3], 26 µM; on STK16 [4] it was more than 100 µM.

On to `COc1ccc2nccc(Nc3cccc(O)c3)c2c1` [compound 18, 3-((6-methoxyquinolin-4-yl)amino)phenol], for which the Ki in test [1] was 0.0057 µM; on AAK1 [2], 1.6 µM; on BMP2K [3] it was 7.3 µM; at STK16 [4], 27 µM.

`COc1cccc(Nc2ccnc3ccc(S(C)(=O)=O)cc23)c1` [compound 19, 6-methanesulfonyl-N-(3-methoxyphenyl)quinolin-4-amine]: the Ki was 0.03 µM in test [1], 23 µM on AAK1 [2], 19 µM on BMP2K [3] and more than 100 µM at STK16 [4].

As to `O=[N+]([O-])c1cccc(Nc2ccnc3ccc(Br)cc23)c1` [compound 21, 6-bromo-N-(3-nitrophenyl)quinolin-4-amine], the inhibition constant (Ki) was 0.056 µM in [6], 40 µM on AAK1 [7], more than 100 µM at BMP2K [8] and more than 100 µM on STK16 [9].

Take `Brc1ccc2nccc(Nc3ccc4c(c3)OCO4)c2c1` [compound 25, N-(2H-1,3-benzodioxol-5-yl)-6-bromoquinolin-4-amine]: the inhibitory constant (Ki) in test [6] was 0.035 µM; at AAK1 [7] it was 5.2 µM; at BMP2K [8], 12 µM; on STK16 [9] it was 10 µM.

As to `Brc1ccc2nccc(Nc3cccc4c3OCO4)c2c1` [compound 27, N-(Benzo[d][1,3]dioxol-4-yl)-6-bromoquinolin-4-amine], the Ki at AAK1 [7], at BMP2K [8] and on STK16 [9] was more than 100 µM each time.

Turning to `COc1cccc(Nc2ncnc3ccc(Br)cc23)c1` [compound 29, 6-bromo-N-(3-methoxyphenyl)quinazolin-4-amine], the Ki in test [6] was 0.011 µM; on AAK1 [7] it was 0.39 µM; on BMP2K [8], 1.3 µM; at STK16 [9], 5.5 µM.

Consider `FS(F)(F)(F)(F)c1cccc(Nc2ccnc3ccc(Br)cc23)c1` [compound 32, 6-bromo-N-(3-(pentafluoro-λ^6-sulfaneyl)phenyl)quinolin-4-amine], for which the Ki in test [6] was 4.9 µM; at AAK1 [7], more than 100 µM; on BMP2K [8], more than 100 µM; at STK16 [9], more than 100 µM.

As to `CC(C)(C)Oc1cccc(Nc2ccnc3ccc(Br)cc23)c1` [compound 33, 6-bromo-N-[3-(tert-butoxy)phenyl]quinolin-4-amine], the Ki in test [6] was 2.2 µM; at AAK1 [7], 15 µM; on BMP2K [8], more than 100 µM; at STK16 [9], 12 µM.

Take `CC(C)(C)c1cccc(Nc2ccnc3ccc(Br)cc23)c1` [compound 34, 6-bromo-N-(3-tert-butylphenyl)quinolin-4-amine]: the Ki was 2.6 µM in [6], more than 100 µM on AAK1 [7], more than 100 µM at BMP2K [8] and more than 100 µM on STK16 [9].

Source of the values: doi:10.1101/2020.03.06.976563v1 (biorxiv, 2020).
